Test results published in patent US9062048B2, “Cyclohexyl-azetidinyl antagonists of CCR2” (Janssen Pharmaceutica NV, priority 2010, dated 2015).

Target: CCR2 (Homo sapiens (Human), UniProt P41597)
Experiment: MCP-1 Receptor Binding Assay in THP-1 Cells;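 further: THP-1 is a human monocytic cell line, and nonspecific binding was defined with 1 µM unlabeled MCP-1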
Details: 0.5 nM 125I labeled MCP-1, 2 hours at 30° C., read-out: Inhibition of MCP-1 Binding IC50 MCP1B

CCR2, sequence (P41597 whole entry): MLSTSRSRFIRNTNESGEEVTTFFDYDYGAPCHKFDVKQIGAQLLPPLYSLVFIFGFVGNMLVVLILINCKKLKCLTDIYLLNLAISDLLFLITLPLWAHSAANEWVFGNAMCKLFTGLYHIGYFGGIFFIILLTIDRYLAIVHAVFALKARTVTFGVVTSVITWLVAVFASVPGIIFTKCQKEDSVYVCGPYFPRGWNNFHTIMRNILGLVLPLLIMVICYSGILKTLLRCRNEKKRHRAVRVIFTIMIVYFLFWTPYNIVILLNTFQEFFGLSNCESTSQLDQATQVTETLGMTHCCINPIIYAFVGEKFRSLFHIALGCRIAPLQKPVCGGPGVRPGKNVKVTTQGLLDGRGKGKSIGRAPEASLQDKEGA

SMILES	IC50 [nM]
O=C(CNc1ncnc2ccc(C(F)(F)F)cc12)NC1CN([C@H]2CC[C@@H](C3CCOCC3)CC2)C1 [Example 38, N-(1-((1s,4s)-4-(tetrahydro-2H-pyran-4-yl)cyclohexyl)azetidin-3-yl)-2-((6-(trifluoromethyl)quinazolin-4-yl)amino)acetamide]	160
O=C(CNc1ncnc2ccc(C(F)(F)F)cc12)NC1CN([C@H]2CC[C@@H](C3CCCC3)CC2)C1 [Example 33, N-(1-((1s,4s)-4-cyclopentylcyclohexyl)azetidin-3-yl)-2-((6-(trifluoromethyl)quinazolin-4-yl)amino)acetamide]	140
O=C(CNc1ncnc2ccc(C(F)(F)F)cc12)NC1CN(C2CCC([C@@H](O)C3CC3)CC2)C1 (single isomer, unassigned; (-)) [(−) 6]	8
CCC(=O)N(C)[C@H]1CC[C@@H](N2CC(NC(=O)CNc3ncnc4ccc(C(F)(F)F)cc34)C2)CC1 [Example 45, N-Methyl-N-((1s,4s)-4-(3-(2-((6-(trifluoromethyl)quinazolin-4-yl)amino)acetamido)azetidin-1-yl)cyclohexyl)propionamide]	390
CC(C)[C@@H](O)[C@H]1CC[C@@H](N2CC(NC(=O)CNc3nccc4ncc(C(F)(F)F)cc34)C2)CC1 (stereo in doubt) [Example 155, N-(1-((1R,4s)-4-((S)-1-hydroxy-2-methylpropyl)cyclohexyl)azetidin-3-yl)-2-((3-(trifluoromethyl)-1,6-naphthyridin-5-yl)amino)acetamide]	> 25000
CCC(O)[C@H]1CC[C@@H](N2CC(NC(=O)CNc3ncnc4ccc(C(F)(F)F)cc34)C2)CC1 (stereo partly drawn) [Example 93, N-(1-((1S,4s)-4-(1-hydroxypropyl)cyclohexyl)azetidin-3-yl)-2-((6-(trifluoromethyl)quinazolin-4-yl)amino)acetamide]	21
CN([C@H]1CC[C@@H](N2CC(NC(=O)CNc3ncnc4ccc(C(F)(F)F)cc34)C2)CC1)S(C)(=O)=O [Example 49, N-(1-((1s,4s)-4-(N-methylmethylsulfonamido)cyclohexyl)azetidin-3-yl)-2-((6-(trifluoromethyl)quinazolin-4-yl)amino)acetamide]	950
NC[C@H]1CC[C@@H](N2CC(NC(=O)CNc3ncnc4ccc(C(F)(F)F)cc34)C2)CC1 [Example 116, N-(1-((1s,4s)-4-(aminomethyl)cyclohexyl)azetidin-3-yl)-2-((6-(trifluoromethyl)quinazolin-4-yl)amino)acetamide]	240
C#CC(O)[C@H]1CC[C@@H](N2CC(NC(=O)CNc3ncnc4ccc(C(F)(F)F)cc34)C2)CC1 (stereo partly drawn) [Example 95, N-(1-((1R,4s)-4-(1-hydroxyprop-2-yn-1-yl)cyclohexyl)azetidin-3-yl)-2-((6-(trifluoromethyl)quinazolin-4-yl)amino)acetamide]	28
Nc1ccc(C2CCC(N3CC(NC(=O)CNc4ncnc5ccc(C(F)(F)F)cc45)C3)CC2)nc1 (stereo not shown) [Example 70, N-(1-(4-(5-aminopyridin-2-yl)cyclohexyl)azetidin-3-yl)-2-((6-(trifluoromethyl)quinazolin-4-yl)amino)acetamide]	9
O=C(CNc1ncnc2ccc(C(F)(F)F)cc12)NC1CN([C@H]2CC[C@@H](N3CCSCC3)CC2)C1 [Example 133, N-(1-((1s,4s)-4-thiomorpholinocyclohexyl)azetidin-3-yl)-2-((6-(trifluoromethyl)quinazolin-4-yl)amino)acetamide]	200
CCC(O)(CC)[C@H]1CC[C@@H](N2CC(NC(=O)CNc3ncnc4ccc(C(F)(F)F)cc34)C2)CC1 [Example 30, N-(1-((1s,4s)-4-(3-hydroxypentan-3-yl)cyclohexyl)azetidin-3-yl)-2-((6-(trifluoromethyl)quinazolin-4-yl)amino)acetamide]	209
CC(C)[C@]1(O)CC[C@H](N2CC(NC(=O)CNc3ncnc4ccc(C(F)(F)F)cc34)C2)CC1 [Example 37, N-(1-((1r,4r)-4-hydroxy-4-isopropylcyclohexyl)azetidin-3-yl)-2-((6-(trifluoromethyl)quinazolin-4-yl)amino)acetamide]	235
